Results published in patent US9029386B2, “Pyridine derivatives useful as kinase inhibitors” (YM Biosciences Australia Pty Ltd, priority 2006, dated 2015).

How the values were obtained:
PTK5(h) = molecular target: T1, PTK5(h) (Homo sapiens, UniProt P42685); experiment: KinaseProfiler assay (Upstate), PTK5; format: biochemical
T1 construct: purchased Upstate Biotechnology (Dundee, UK), KinaseProfiler service
Procedure: (§1) Further enzyme assays were conducted at Upstate Biotechnology (Dundee, UK) in the KinaseProfiler™ Assay system.
(§2) The general protocol is as follows. All kinases are pre-diluted to a 10× working concentration prior to addition into the assay. The composition of the dilution buffer for the kinases is 20 mM MOPS pH 7.0, 1 mM EDTA, 0.1% β-mercaptoethanol, 0.01% Brij-35, 5% glycerol, 1 mg/ml BSA. All substrates are dissolved and diluted to working stocks in de-ionised water.

EphA2(h) = molecular target: T2, EphA2(h) (Homo sapiens, UniProt P29317); experiment: KinaseProfiler assay (Upstate), EphA2; format: biochemical
T2 construct: purchased Upstate Biotechnology (Dundee, UK), KinaseProfiler service
T2 sequence (P29317 24-976): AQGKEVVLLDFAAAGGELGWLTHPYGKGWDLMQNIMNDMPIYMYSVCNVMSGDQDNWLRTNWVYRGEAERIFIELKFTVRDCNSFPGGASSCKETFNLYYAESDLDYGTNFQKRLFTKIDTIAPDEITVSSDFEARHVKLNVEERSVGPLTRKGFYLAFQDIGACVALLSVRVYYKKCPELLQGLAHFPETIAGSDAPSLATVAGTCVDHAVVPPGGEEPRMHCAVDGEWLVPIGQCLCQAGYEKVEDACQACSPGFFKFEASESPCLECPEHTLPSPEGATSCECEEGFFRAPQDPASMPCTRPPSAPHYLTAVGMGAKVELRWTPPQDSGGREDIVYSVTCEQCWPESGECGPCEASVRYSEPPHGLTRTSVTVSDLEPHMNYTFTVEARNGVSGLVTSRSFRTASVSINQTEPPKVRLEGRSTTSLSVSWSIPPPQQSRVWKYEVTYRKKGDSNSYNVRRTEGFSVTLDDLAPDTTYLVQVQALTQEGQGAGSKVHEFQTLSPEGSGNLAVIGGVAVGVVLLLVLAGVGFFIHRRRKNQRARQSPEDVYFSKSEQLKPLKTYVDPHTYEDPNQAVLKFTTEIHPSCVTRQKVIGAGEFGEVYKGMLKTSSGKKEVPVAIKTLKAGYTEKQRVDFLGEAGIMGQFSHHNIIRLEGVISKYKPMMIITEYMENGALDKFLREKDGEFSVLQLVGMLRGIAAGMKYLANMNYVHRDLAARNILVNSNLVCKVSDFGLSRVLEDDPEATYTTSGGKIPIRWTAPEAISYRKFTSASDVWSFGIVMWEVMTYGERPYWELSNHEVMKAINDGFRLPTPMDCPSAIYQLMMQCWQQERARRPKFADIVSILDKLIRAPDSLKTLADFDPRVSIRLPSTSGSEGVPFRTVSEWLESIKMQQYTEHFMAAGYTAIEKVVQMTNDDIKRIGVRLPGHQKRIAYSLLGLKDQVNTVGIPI
Procedure: as §1, §2
(§3) In a final reaction volume of 25 EphA2 (h) (5-10 mU) is incubated with 8 mM MOPS pH 7.0, 0.2 mM EDTA, 0.1 mg/ml poly(Glu, Tyr) 4:1, 10 mM MgAcetate and [γ-33P-ATP] (specific activity approx. 500 cpm/pmol, concentration as required). The reaction is initiated by the addition of the MgATP mix. After incubation for 40 minutes at room temperature, the reaction is stopped by the addition of 5 μl of a 3% phosphoric acid solution. 10 μl of the reaction is then spotted onto a Filtermat A and washed three times for 5 minutes in 75 mM phosphoric acid and once in methanol prior to drying and scintillation counting.

Baf3-WT = experiment: Cellular assay (Alamar Blue), Baf3-WT with mouse IL-3; format: cell-based; details: mouse IL-3 at 5 ng/ml, 72 hr
Procedure: Cells for the assays were prepared by harvesting cells from culture, and then diluting them in the appropriate growth medium to between 40,000 cell/mL and 600,000 cell/mL, depending on the cell line.
The compounds to be tested were added (104, 10× final concentration) to a flat bottomed 96-well plate. The cellular suspension (80 μL per well) was added, and one hour later the growth factor was added (human M-CSF at 20 ng/ml for mNFS-60, mouse IL-3 at 5 ng/ml for Baf3-WT). The plate was then incubated for 72 hr at 37° C., 5% CO2. Alamar Blue (10^4 per well) was added and the plates returned to the incubator for a further 4-8 hours.
The plates were then read using a fluorescence plate reader at excitation 544 nm and emission 590 nm.

Hck(h) = molecular target: T3, Hck(h) (Homo sapiens, UniProt P08631); experiment: KinaseProfiler assay (Upstate), Hck; format: biochemical
T3 construct: purchased Upstate Biotechnology (Dundee, UK), KinaseProfiler service
T3 sequence (P08631 whole entry): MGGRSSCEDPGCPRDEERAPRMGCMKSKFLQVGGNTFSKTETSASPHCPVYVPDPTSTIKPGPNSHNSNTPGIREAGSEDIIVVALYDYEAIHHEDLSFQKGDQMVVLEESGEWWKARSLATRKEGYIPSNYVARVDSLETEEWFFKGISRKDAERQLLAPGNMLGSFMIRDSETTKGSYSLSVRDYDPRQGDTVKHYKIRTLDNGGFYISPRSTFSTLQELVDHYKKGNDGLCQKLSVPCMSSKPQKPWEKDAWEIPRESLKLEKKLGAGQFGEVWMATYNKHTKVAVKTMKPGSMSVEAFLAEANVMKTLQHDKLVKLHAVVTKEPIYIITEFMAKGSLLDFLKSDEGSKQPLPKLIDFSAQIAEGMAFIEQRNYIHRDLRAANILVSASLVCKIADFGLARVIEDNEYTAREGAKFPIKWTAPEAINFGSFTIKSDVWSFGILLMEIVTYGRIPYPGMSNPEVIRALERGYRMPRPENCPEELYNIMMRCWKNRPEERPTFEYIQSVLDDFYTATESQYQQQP
Procedure: as §1, §2
as §3, with “μl, Hck” for “EphA2”, “250 μM […] (Cdc2 peptide),” for “0.1 mg/ml poly(Glu, Tyr) 4:1,”, “P30 filtermat” for “Filtermat A”

[1] = molecular target: T4, kinase domain of human CSF1-R (Homo sapiens, UniProt P07333); experiment: Alphascreen protein tyrosine kinase assay, CSF-1R; format: biochemical
T4 construct: from codon I553 to Q961; made in house; host or cells: Sf9 insect cells (baculovirus)
T4 sequence (P07333 553-961): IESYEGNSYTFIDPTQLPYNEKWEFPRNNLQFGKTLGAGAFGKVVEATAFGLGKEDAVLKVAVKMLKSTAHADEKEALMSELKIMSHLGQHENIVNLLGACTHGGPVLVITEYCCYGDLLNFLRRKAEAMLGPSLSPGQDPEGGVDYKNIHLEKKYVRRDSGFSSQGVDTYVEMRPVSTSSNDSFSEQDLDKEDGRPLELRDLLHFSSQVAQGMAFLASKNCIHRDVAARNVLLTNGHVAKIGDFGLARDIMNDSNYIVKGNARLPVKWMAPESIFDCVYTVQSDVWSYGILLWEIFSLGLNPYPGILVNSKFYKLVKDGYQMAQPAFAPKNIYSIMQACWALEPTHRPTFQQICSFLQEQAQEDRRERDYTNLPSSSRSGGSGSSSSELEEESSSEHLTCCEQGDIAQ
Procedure: (§4) For screening purposes, compounds were diluted in 96 well plates at a concentration of 20 μM. Plates were warmed at 37° C. for 30 minutes before assay.
The kinase domain of human CSF1-R from codon I553 to Q961 was cloned into the pDEST-20 expression vector (Invitrogen). The CSF1-R plasmid was then transformed into competent DH10Bac cells (Gibco), and the recombinant baculovirus produced prepared for transfection into Sf9 insect cells.
Baculovirus preparations from each of construct were infected into five liters of SF9 cells (Invitrogen) grown in SF-900 medium (Invitrogen) to a cell density of approximately 1−2×10^6 cells/ml. […] Cells were harvested and lysed. Tyrosine kinase domains were purified by affinity chromatography on a glutathione-agarose column (Scientifix Pty. Ltd. catalog #: GSH-200).
Kinase assays were performed in 384 well Optiplates (Packard) using an Alphascreen Protein Tyrosine Kinase kit. […] Alphascreen phosphotyrosine acceptor beads followed by streptavidin donor beads were added under subdued light. The Alphascreen plates were read on a Packard Fusion Alpha. Inhibitors were added to the assays thirty minutes prior to the addition of ATP. Inhibitors were added in aqueous DMSO, with DMSO concentrations never exceeding 1%.

KDR protein kinase = molecular target: T5, KDR protein kinase (Homo sapiens, UniProt P35968); experiment: Alphascreen protein tyrosine kinase assay, KDR; format: biochemical
T5 construct: purchased Millipore 14-630M
T5 sequence (P35968 20-1356): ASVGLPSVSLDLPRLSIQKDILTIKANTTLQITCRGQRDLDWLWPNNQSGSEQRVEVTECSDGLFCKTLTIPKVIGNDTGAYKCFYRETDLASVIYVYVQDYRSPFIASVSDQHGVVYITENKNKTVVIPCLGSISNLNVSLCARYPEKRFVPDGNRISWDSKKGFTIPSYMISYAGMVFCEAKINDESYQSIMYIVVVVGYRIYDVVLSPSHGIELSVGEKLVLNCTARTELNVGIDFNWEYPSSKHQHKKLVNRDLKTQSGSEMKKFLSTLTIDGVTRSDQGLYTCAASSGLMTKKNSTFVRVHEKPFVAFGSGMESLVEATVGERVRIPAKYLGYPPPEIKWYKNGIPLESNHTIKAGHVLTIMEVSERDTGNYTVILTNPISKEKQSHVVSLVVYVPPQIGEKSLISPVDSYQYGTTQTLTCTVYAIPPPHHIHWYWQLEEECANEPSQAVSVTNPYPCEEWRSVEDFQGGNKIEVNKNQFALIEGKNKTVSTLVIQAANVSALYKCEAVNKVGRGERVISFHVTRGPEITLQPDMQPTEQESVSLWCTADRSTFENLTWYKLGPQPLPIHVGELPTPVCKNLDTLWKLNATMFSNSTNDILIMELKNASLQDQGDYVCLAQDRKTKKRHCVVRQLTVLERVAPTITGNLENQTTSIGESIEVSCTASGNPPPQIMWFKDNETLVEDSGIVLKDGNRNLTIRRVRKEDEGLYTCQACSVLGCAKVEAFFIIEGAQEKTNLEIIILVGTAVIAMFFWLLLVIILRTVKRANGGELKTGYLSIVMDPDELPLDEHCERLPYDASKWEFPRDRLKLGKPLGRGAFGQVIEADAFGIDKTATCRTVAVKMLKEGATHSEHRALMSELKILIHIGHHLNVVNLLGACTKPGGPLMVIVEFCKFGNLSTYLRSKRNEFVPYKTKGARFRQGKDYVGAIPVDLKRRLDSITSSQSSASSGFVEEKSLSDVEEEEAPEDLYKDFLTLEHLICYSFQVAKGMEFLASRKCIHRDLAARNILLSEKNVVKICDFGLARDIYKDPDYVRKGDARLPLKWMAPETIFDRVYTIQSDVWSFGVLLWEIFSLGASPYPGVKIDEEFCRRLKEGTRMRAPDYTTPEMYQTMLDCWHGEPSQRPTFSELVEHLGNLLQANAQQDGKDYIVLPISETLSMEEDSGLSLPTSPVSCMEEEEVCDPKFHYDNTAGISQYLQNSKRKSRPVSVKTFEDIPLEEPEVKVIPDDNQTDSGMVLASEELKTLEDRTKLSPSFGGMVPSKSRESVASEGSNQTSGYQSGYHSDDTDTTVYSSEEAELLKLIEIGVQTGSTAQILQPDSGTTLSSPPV
Procedure: as §4
FLT-3 and PDGFR β tyrosine kinase enzymes were purchased from Upstate Cell Signalling Solutions, CA, USA (flt-3 catalog #: 14-500 and PDGFR β catalog #: 14-463). KDR protein kinase enzyme was purchased from Millipore (catalogue #14-630M).
Kinase assays were performed in 384 well Optiplates (Packard) using an Alphascreen Protein Tyrosine Kinase kit. […] The biotinylated peptides Biotin-[…]-NH2 for c-KIT and PDGFRβ and Biotin-[…]-NH2 for CSF1-R and FLT-3 (final concentration 0.1-3 μM) were used as substrates. Alphascreen phosphotyrosine acceptor beads followed by streptavidin donor beads were added under subdued light. The Alphascreen plates were read on a Packard Fusion Alpha. Inhibitors were added to the assays thirty minutes prior to the addition of ATP. Inhibitors were added in aqueous DMSO, with DMSO concentrations never exceeding 1%.

T1 sequence (P42685 whole entry): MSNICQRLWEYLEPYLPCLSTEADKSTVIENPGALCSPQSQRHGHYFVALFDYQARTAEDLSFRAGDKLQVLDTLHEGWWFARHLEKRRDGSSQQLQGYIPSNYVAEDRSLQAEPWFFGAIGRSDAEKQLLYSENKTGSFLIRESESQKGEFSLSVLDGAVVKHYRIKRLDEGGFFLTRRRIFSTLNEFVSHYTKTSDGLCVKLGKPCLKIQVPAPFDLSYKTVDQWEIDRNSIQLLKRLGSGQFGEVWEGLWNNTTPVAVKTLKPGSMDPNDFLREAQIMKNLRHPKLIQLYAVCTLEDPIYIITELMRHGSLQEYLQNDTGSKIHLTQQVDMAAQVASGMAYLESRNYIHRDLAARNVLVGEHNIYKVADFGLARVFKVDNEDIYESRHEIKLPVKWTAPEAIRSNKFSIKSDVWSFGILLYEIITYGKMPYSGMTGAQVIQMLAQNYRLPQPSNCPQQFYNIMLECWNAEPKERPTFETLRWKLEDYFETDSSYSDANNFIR

C[C@H](Nc1cncc(-c2cccc(N3CCOCC3)c2)n1)c1cccc(NC(=O)c2cccc(C(F)(F)F)c2)c1 [Compound 149]
inhibition at 0.1 µM (PTK5(h)): 95% | inhibition at 1 µM (PTK5(h)): 100% | inhibition at 0.1 µM (EphA2(h)): 96% | inhibition at 1 µM (EphA2(h)): 102% | IC50 (Baf3-WT): > 10000 nM | inhibition at 0.1 µM (Hck(h)): 94% | inhibition at 1 µM (Hck(h)): 100% | IC50 [1]: < 100 nM | IC50 (KDR protein kinase): < 100 nM

Cc1cccc(C(=O)Nc2cccc([C@H](C)Nc3cncc(-c4cccc(N5CCOCC5)c4)n3)c2)c1 [Compound 147]
inhibition at 0.1 µM (PTK5(h)): 94% | inhibition at 1 µM (PTK5(h)): 100% | inhibition at 0.1 µM (EphA2(h)): 97% | inhibition at 1 µM (EphA2(h)): 102% | IC50 (Baf3-WT): > 10000 nM | inhibition at 0.1 µM (Hck(h)): 90% | inhibition at 1 µM (Hck(h)): 100% | IC50 [1]: < 100 nM | IC50 (KDR protein kinase): < 100 nM

Cc1cccc(C(=O)Nc2cccc([C@H](C)Nc3cncc(C(N)=O)n3)c2)c1 [Compound 133, (S)-6-(1-(3-(3-methylbenzamido)phenyl)ethylamino)pyrazine-2-carboxamide]
inhibition at 0.1 µM (PTK5(h)): 80% | inhibition at 1 µM (PTK5(h)): 98% | inhibition at 0.1 µM (EphA2(h)): 69% | inhibition at 1 µM (EphA2(h)): 99% | IC50 (Baf3-WT): > 10000 nM | inhibition at 0.1 µM (Hck(h)): 23% | inhibition at 1 µM (Hck(h)): 84% | IC50 [1]: < 100 nM | IC50 (KDR protein kinase): < 100 nM

Cc1cccc(C(=O)Nc2cccc([C@H](C)Nc3cncc(-c4ccc(S(N)(=O)=O)cc4)n3)c2)c1 [Compound 77]
inhibition at 0.1 µM (PTK5(h)): 91% | inhibition at 1 µM (PTK5(h)): 99% | inhibition at 0.1 µM (EphA2(h)): 87% | inhibition at 1 µM (EphA2(h)): 102% | IC50 (Baf3-WT): > 10000 nM | inhibition at 0.1 µM (Hck(h)): 64% | inhibition at 1 µM (Hck(h)): 95% | IC50 [1]: < 100 nM | IC50 (KDR protein kinase): < 100 nM

Cc1cccc(C(=O)Nc2ccc(C)c([C@H](C)Nc3cncc(Cl)n3)c2)c1 [Compound 168]
inhibition at 0.1 µM (PTK5(h)): 100% | inhibition at 1 µM (PTK5(h)): 100% | inhibition at 0.1 µM (EphA2(h)): 102% | inhibition at 1 µM (EphA2(h)): 103% | inhibition at 0.1 µM (Hck(h)): 96% | inhibition at 1 µM (Hck(h)): 101%

C[C@H](Nc1cncc(Cl)n1)c1cccc(NC(=O)c2cccc(C(F)(F)F)c2)c1 [Compound 114, (S)—N-(3-(1-(6-chloropyrazin-2-ylamino)ethyl)phenyl)-3-(trifluoromethyl)benzamide]
inhibition at 0.1 µM (PTK5(h)): 98% | inhibition at 1 µM (PTK5(h)): 100% | inhibition at 0.1 µM (EphA2(h)): 96% | inhibition at 1 µM (EphA2(h)): 101% | IC50 (Baf3-WT): > 10000 nM | inhibition at 0.1 µM (Hck(h)): 74% | inhibition at 1 µM (Hck(h)): 102% | IC50 (KDR protein kinase): < 100 nM

Cc1cccc(C(=O)Nc2cccc([C@H](C)Nc3cncc(-n4ccnc4)n3)c2)c1 [Compound 143, (S)—N-(3-(1-(6-(1H-imidazol-1-yl)pyrazin-2-ylamino)ethyl)phenyl)-3-methylbenzamide]
inhibition at 0.1 µM (PTK5(h)): 88% | inhibition at 1 µM (PTK5(h)): 96% | inhibition at 0.1 µM (EphA2(h)): 80% | inhibition at 1 µM (EphA2(h)): 99% | IC50 (Baf3-WT): < 10000 nM | inhibition at 0.1 µM (Hck(h)): 55% | inhibition at 1 µM (Hck(h)): 82% | IC50 [1]: < 100 nM | IC50 (KDR protein kinase): < 100 nM

Cc1cccc(C(=O)Nc2cccc([C@H](C)Nc3cncc(-c4ccc(N5CCN(C)CC5)cc4)n3)c2)c1 [Compound 129]
inhibition at 0.1 µM (PTK5(h)): 99% | inhibition at 1 µM (PTK5(h)): 100% | inhibition at 0.1 µM (EphA2(h)): 24% | inhibition at 1 µM (EphA2(h)): 93% | IC50 (Baf3-WT): < 10000 nM | inhibition at 0.1 µM (Hck(h)): 84% | inhibition at 1 µM (Hck(h)): 99% | IC50 [1]: < 100 nM | IC50 (KDR protein kinase): < 100 nM

C[C@H](Nc1cncc(-c2ccc(N3CCN(C)CC3)cc2)n1)c1cccc(NC(=O)c2cccc(C(F)(F)F)c2)c1 [Compound 148]
inhibition at 0.1 µM (PTK5(h)): 99% | inhibition at 1 µM (PTK5(h)): 100% | inhibition at 0.1 µM (EphA2(h)): 93% | inhibition at 1 µM (EphA2(h)): 102% | IC50 (Baf3-WT): < 10000 nM | inhibition at 0.1 µM (Hck(h)): 96% | inhibition at 1 µM (Hck(h)): 99% | IC50 [1]: < 100 nM | IC50 (KDR protein kinase): < 100 nM
